Source: patent US6649628B1, “N-[2-hydroxy-3-(1-piperidinyl)propoxy]pyridine-1-oxide-3-carboximidoyl chloride and its use in the treatment of insulin resistance” (Biorex Kutato es Fejleszto RT, priority 1999, dated 2003)

Legend:
STZ-diabetic Wistar rats [1] = tested on: STZ-diabetic Wistar rats
Description: The experiments were accomplished on Wistar rats with a body weight of 320-350 g. Diabetes was induced and checked as described in Experiment 2. In the test animals having been diabetic for 3 weeks the left nervus ischidiacus was injured by freezing and the right side one was used as non-injured control. The regeneration was observed by monitoring the signals of the flexor reflex provoked by irritation of the sole that is areas under curve (AUC) of the electromyogram transferred from the forward tibial muscle. For the stimulation and detection the system described in Experiment 2 was used. Single daily doses of 10 mg/kg of Compound-A and 5 mg/kg of A(+) enantiomer were administred for 5 weeks after the injury by freezing.

STZ-diabetic Wistar rats [2] = experiment: Experiment 3: diabetic autonomous neuropathy after 1 month of treatment; type: in vivo, rat; conditions: daily 20 mg/kg single dose
Description: The experiments were performed under anesthesia achieved by administering 60 mg/kg ip. pentobarbital sodium (Nembutal, Sanofi, Phylaxia). After this, an intratracheal tube or polyethylene canula was inserted into the fermoral artery and vein. The arterial catheter was connected to a pressure transducer for the simultaneous measurement of systolic and diastolic blood pressure (online automatic measuring and forwarding system, with a Haemosys computer program). After 20 minutes of equillibration period, the following substances were administered intravenously: Noradrenalin, 5 μg/kg iv.—Isoproterenol 0.4 μg/kg iv.—N.vagus stimulation (2 V, duration: 500 μsec, delay: 1 msec). The effects of the substances were monitored for 10 minutes.

STZ-diabetic Wistar rats [3] = experiment: Experiment 5: urinary protein loss caused by diabetic nephropathy after 1-month treatment; type: in vivo, rat
Description: For the 24-hour period of urine collection, the animals were placed in individual metabolic cages. During this period they were given water ad libitum but no food. The latter measure was necessary to prevent possible contamination by the protein content of the food. Urine was collected in calibrated glass containers, in which Thymol crystal (Reanal 3135-1-08-38) was placed to prevent bacterial contamination.
Before measurement, the urine samples were centrifuged (2500 rpm) and filtered through a paper filter (Whatmann 1). If necessary, they were stored at −20° C. until measurement.
The total protein content of the urine was determined by the Bradford staining method (Sigma B-6916, St. Louis, Mo.), and color intensity was detected by spectrophotometry (Hitachi-U-3200).

STZ-diabetic rats = conditions: 2 month
Description: After anesthesia (Calypsovet, 125 mg/kg. Ip., Richter Rt., Hungary), the eyes were enucleated and fixed in 4% formaldehyde dissolved in a phosphate buffer (pH:7.4).
Afterwards, they were embedded in paraffin (Medim DDM P800, embedding center: Lignifer L-120-92-014, stainer: Shandon Eliott, Microtome: is Leica SM 2000 R, Microscope: Jenaval Karl Zeiss Jena). Several 6 micron sections of the eyes were prepared, and hematoxilyn/eosine (Fluka) and PAS (periodic acid-Schiff, Fluka) staining were used. The light-microscopic evaluation was performed at a magnification of 40× and 100×. Photographs and slide positives were prepared of representative samples.
The histological evaluation was performed on coded samples, the group division was unknown for the examiner. Pathological deviations of the retina were graded on a scale of 0-20, while those of the lens on a scale of 0-3.
The statistical calculations were done with the Statistica 4.5 (SatSoft, USA) program. The given value for negative cases was 0.1. A Box and Whisker plot graph was also prepared.
For each group in the experiment, the mean±SE (Standard Error) values were calculated, and the comparison was done with the help of a non-parametric Mann-Whitney U-test (Graphpad Instat, San Diego, Calif.).

[4] = tested on: obese, insulin resistant, hyperinsulinaemic Zucker fa/fa rats; experiment: Experiment 1: carbohydrate metabolism (fasting glucose/insulin, ip glucose tolerance test) after 2-month treatment; type: in vivo, rat
Description: In the experiments so-called Zucker fa/fa rats (Charles River Laboratories Inc.) were used. In […] animals, obesity, insulin resistance, high blood insulin level, impaired glucose tolerance and hypertriglyceridaemia result from hypothalamic leptin receptor mutation. Due to the above characteristics, this is an accepted model of early type 2 diabetes.
The animals were placed in individual metabolic cages for 24 hours at the beginning of the study, and after 1 or 2 months of treatment for 24 hours of urine collection.
The animals were given either the test substances or physiological saline solution by gavage for control once a day between weeks 14-22.
Biochemical parameters of the blood and the urine were measured by a Kodak Ectachem 700 automatic analyzer. The total protein level of the urine was determined spectrophotometrically with the use of Bradford staining (Hitachi U-3200) at 595 nm. The insulin concentration of the serum was determined by the RIA method, using rat anti-insulin antibodies.
Systolic, diastolic blood pressure and heart rate were measured weekly on the tails of the rats (so-called tail cuff method) by a Letica 200 automatic analyzer. After two months of treatment, the level of glucose tolerance was determined by the intraperitoneal glucose tolerance test (2 g/kg ip.).

STZ-diabetic Wistar rats [5] = experiment: Experiment 2: peripheral neuropathy, nerve conduction velocity after 1-month treatment; type: in vivo, rat; conditions: for MNCV / MNCV improvement / SNCV / SNCV improvement: 1 month
Description: (Graphpad Instat, San Diego, Calif.).

STZ-diabetic Wistar rats [6] = experiment: Experiment 4: histological alterations of early diabetic retinopathy after 1 month of treatment; type: in vivo, rat
Description: Photographs and slide positives were prepared of representative samples.
The given value for negative cases was 0.1. A Box and Whisker plot graph was also prepared.

STZ-diabetic Wistar rats [7] = experiment: Experiment 6: Compound-A and enantiomers, nerve conduction velocity after 1 month treatment
Description: In the experiments, male Wistar rats were used (Charles River Laboratories Inc.). At the start of the experiment, their weights were 340-370 g. Diabetes was induced by the intravenous administration of a single 45 mg/kg dose of streptozotocine (STZ, Sigma, St. Louis, Mo.) dissolved in physiological saline solution. The development of diabetes was checked after 1 day by a blood glucose test, accepting a value over 15 mmol/l.
The test and reference substances were administered p.os to the animals once a day.
For the determination of nerve conduction velocity (NCV), the method of Stanley, modified by De Konig and Gispen was used. The animals were anesthetized by the simultaneous administration of Hyponorm (1 mg/kg ip., Janssen, Tilburg, Denmark), fluanisone (10 mg/ml), and phentanyl citrate (0.2 mg/ml). Afterwards, the left ischiadicus and tibial nerves were stimulated at standard points. Supramaximal stimulus (square impulse, 0.03 ms) was used with a platinum needle electrode, through a Nihon-Kohden (model SEN-1104, Japan) stimulator. The electromyogram (EMG) transferred from the sole muscles and intensified by a myograph (Elema-Schonander, Stockholm, Sweden) was analyzed further by the Matlab for Windows (Mathwork Inc, UK) program. The extent of NCV damage caused by diabetes was expressed in m/s. The effectiveness of the treatment was compared to this in terms of percentage (%). The statistical calculations were done by unpaired t-test or single-criterion ANOVA test (along with the Newman-Keuls post hoc test).

[8] = Compound-A 10 mg/kg, enantiomers 5 mg/kg daily
[9] = 20 mg/kg p.os daily, 2-month treatment
[10] = intraperitoneal glucose tolerance test
[11] = ip glucose tolerance test 2 g/kg, AUC 0-60 minutes, 20 mg/kg p.os daily, 2-month treatment

O=C(O)/C=C\C(=O)O.[O-][n+]1cccc(C(Cl)=NOCC(O)CN2CCCCC2)c1 (centres unmarked) [Compound A, N-[2-hydroxy-3-(1-piperidinyl)-propoxy]-pyridine-1-oxide-3-carboximidoyl chloride (Z)-2-butenedioate (1:1)]
neuroregeneration of the non-freezed nerves (STZ-diabetic Wistar rats [1]; 10 mg/kg daily for 5 weeks): 44%
extent of neuroregeneration of the nerve injured by freezing (STZ-diabetic Wistar rats [1]; 10 mg/kg daily for 5 weeks after injury, 5. week, untreated 63%): 73%
effect on pathological deviations resulting from autonomous neuropathy (STZ-diabetic Wistar rats [2]): significantly reduced
Heart left ventricular hypertrophy (deviation due to diabetes) (STZ-diabetic Wistar rats [2]; 1 month): ↑ (corrects)
Increased negative chronotropic effect on vagus stimulation (STZ-diabetic Wistar rats [2]; 1 month): ↑ (corrects)
Reduced hypotension on vagus stimulation (STZ-diabetic Wistar rats [2]; 1 month): ↑ (corrects)
Reduced IS induced systemic arterial hypotension (STZ-diabetic Wistar rats [2]; 1 month, isoproterenol 0.4 μg/kg iv.): — (ineffective)
24-hour Urinary Protein Loss Mean ± SE (STZ-diabetic Wistar rats [3]; 10 mg/kg daily, 1 month, series 2): 12.06 ± 1.70 mg/24 h
effect on STZ-diabetes-induced urinary protein loss (STZ-diabetic Wistar rats [3]; Bimoclomol 20 mg/kg, Compound-A 10 mg/kg, (+) enantiomer 5 mg/kg daily): non-significantly reduced
Scores lenticular + retinal improvement % (STZ-diabetic rats; 10 mg/kg daily): 34.7%
Scores lenticular + retinal mean ± SE (STZ-diabetic rats; 10 mg/kg daily): 4.55 ± 0.69
Scores retinal improvement % (STZ-diabetic rats; 10 mg/kg daily): 65.8%
Scores retinal mean ± SE (STZ-diabetic rats; 10 mg/kg daily): 1.80 ± 0.75
effect on lenticular and retinal pathologic histological alterations (STZ-diabetic rats; [8]): not significant
effect on retinal histological alterations only (STZ-diabetic rats; [8]): effective
effect on fasting blood glucose ([4]; 20 mg/kg p.os daily): significantly reduced
effect on fasting insulin concentration ([4]; 20 mg/kg p.os daily): significantly reduced
reduction of fasting insulin concentration ([4]; 20 mg/kg p.os daily): approx. 50%
Fasting Blood Glucose (mean ± SE) [4, 9]: 8.267 ± 0.436 mmol/L
Fasting Insulin (mean ± SE) [4, 9]: 11.176 ± 1.955 ng/mL
effect on AUC of insulin [4, 10]: reduced it significantly, to the same level as the Lean control
effect on area under the blood glucose curve (AUC) [4, 10]: neither bimoclomol, nor Compound A effected
Blood Glucose (AUC) (mean ± SE) [4, 11]: 1418.40 ± 194.57
Insulin (AUC) (mean ± SE) [4, 11]: 790.35 ± 166.08
effect on peripheral insulin resistance ([4]; summary of Experiment 1): significantly reduces
MNCV (STZ-diabetic Wistar rats [5]; 5 mg/kg p.os once a day): 57.4 ± 0.3 m/s
MNCV improvement (STZ-diabetic Wistar rats [5]; 5 mg/kg p.os once a day): 79.5%
SNCV (STZ-diabetic Wistar rats [5]; 5 mg/kg p.os once a day): 58.4 ± 0.3 m/s
SNCV improvement (STZ-diabetic Wistar rats [5]; 5 mg/kg p.os once a day): 77.6%
MNCV (STZ-diabetic Wistar rats [5]; 10 mg/kg p.os once a day): 59.2 ± 0.3 m/s
MNCV improvement (STZ-diabetic Wistar rats [5]; 10 mg/kg p.os once a day): 90.4%
SNCV (STZ-diabetic Wistar rats [5]; 10 mg/kg p.os once a day): 60.4 ± 0.4 m/s
SNCV improvement (STZ-diabetic Wistar rats [5]; 10 mg/kg p.os once a day): 89.0%
MNCV (STZ-diabetic Wistar rats [5]; 20 mg/kg p.os once a day): 59.1 ± 0.3 m/s
MNCV improvement (STZ-diabetic Wistar rats [5]; 20 mg/kg p.os once a day): 89.8%
SNCV (STZ-diabetic Wistar rats [5]; 20 mg/kg p.os once a day): 60.1 ± 0.3 m/s
SNCV improvement (STZ-diabetic Wistar rats [5]; 20 mg/kg p.os once a day): 87.4%
effect on motor (MNCV) and sensor (SNCV) nerve conduction velocities (STZ-diabetic Wistar rats [5]; bimoclomol 20 mg/kg, Compound A 5 mg/kg once a day): significantly improved
effect of an increase in the dose over 10 mg/kg on NCV improvement (STZ-diabetic Wistar rats [5]; dose over 10 mg/kg): did not increase the effect
Score values Improvement % (STZ-diabetic Wistar rats [6]; 5 mg/kg daily, 1 month): 74.5%
Score values Mean ± SE (retinopathy histology) (STZ-diabetic Wistar rats [6]; 5 mg/kg daily, 1 month): 4.028 ± 0.961
comparison of the two compounds versus diabetic, non-treated animals (STZ-diabetic Wistar rats [6]; Compound A 5 mg/kg vs bimoclomol 20 mg/kg): statistically more effective
effect on diabetic retinopathy induced pathological histological alterations (STZ-diabetic Wistar rats [6]; Compound A 5 mg/kg, bimoclomol 20 mg/kg daily, 1 month): significantly improved
MNCV (STZ-diabetic Wistar rats [7]; 10 mg/kg daily, 1 month): 59.3 ± 0.3 m/s
MNCV improvement (STZ-diabetic Wistar rats [7]; 10 mg/kg daily, 1 month): 78.9%
SNCV improvement (STZ-diabetic Wistar rats [7]; 10 mg/kg daily, 1 month): 79.2%
effect on motor (MNCV) and sensory (SNCV) nerve conduction velocity deficits (STZ-diabetic Wistar rats [7]; [8]): significantly improved
